Results reported in patent publication US20240043373A1, “COMPOSITIONS AND METHODS FOR TREATING AMYLOID-RELATED CONDITIONS” (The Regents of the University of California, priority 2020, published 2024).
Entries after “also recorded” stand apart in the source; their conditions may differ.

How the values were obtained:
sAPPα [1] = assay: sAPPα AlphaLISA in SH-SY5Y cells; type: cell-based, human; details: for sAPPα levels after 24 h: SH-SY5Y, after 24 h (FIG. 12B); for sAPPα in SH-SY5Y cells: SH-SY5Y 150 K/well, 1, 5, 10 and 50 μM, 24 hours, AlphaLISA
Method: Media (20 μL) was collected every 2 h for 24 h (plate was shaken prior to media collection to disburse sAPPα) from each treatment group.

p-GSK3β (Ser 9) [2] = assay: phospho GSK3β / total GSK3β western blot in SH-SY5Y cells; type: cell-based, human; details: SH-SY5Y 100 k/well, 5 uM
Text: FIG. 14B is a graph showing each blot normalized to actin levels.
FIG. 16C is a graph decpiting the normalized to actin levels and the ratio of (phosphor-GSK3β/Actin) to (Total-GSK3β/Actin) from the Western blots in FIGS. 16A & B, calculated by densitometry.

sAPPα [3] = assay: Primary HTS: sAPPα AlphaLISA in CHO-7W cells; type: cell-based, Chinese Hamster
Method: A HTS of portions of the UCLA compound library was undertaken. The primary HTS was carried out at the MSSR facility at UCLA using CHO-7W cells. An initial screen of approximately 7000 compounds was performed using the NIH and NPW libraries, 3 plates from the targeted libraries (TAR), full LOPAC and NKIL libraries, and four plates from the Emerald/Synergy (ES) library. CHO-7W cells (5 K/well) were treated with 5 μM compounds for 48 h followed by collection of media and determination of sAPPα using an AlphaLISA.

RTN3 monomer = RTN3 monomer immunoblot (WB) in SH-SY5Y cells
BAP31 [4] = assay: BAP31 immunoblot (WB) in SH-SY5Y cells; type: cell-based, human; details: SH-SY5Y after treatment
BAP31 [5] = assay: Quantitative global proteomics (LC-MS/MS) of treated SH-SY5Y cells; type: cell-based, human; details: treated vs vehicle (DMSO) SH-SY5Y cells
Method: Tryptic peptides were subsequently labeled with isobaric tandem mass tags (ThermoFischer Scientific) to provide relative quantitation between samples, and then fractionated using high pH reverse-phase chromatography for increased proteome coverage. The multiplexed samples were analyzed by liquid chromatography tandem mass spectrometry (LC-MS/MS).

RTN3 = assay: Oral treatment of ApoE4:5xFAD mice, brain RTN3; type: in vivo; details: E4:FAD mice, orally 4 mg/kg for 18 days
p-GSK3β = assay: Oral treatment of ApoE4:5xFAD mice, brain p-GSK3β; type: in vivo; details: E4:FAD mice, orally 4 mg/kg for 18 days
sAPPα [6] = assay: Oral treatment of ApoE4:5xFAD mice, brain sAPPα; type: in vivo; details: E4:FAD mice, orally 4 mg/kg for 18 days
p-GSK3β (Ser 9) [7] = details: Deng et al., 2015; used at 25 nM as positive control; cited from earlier work

Molecule: COc1cc(C(=O)OCCCN2CCCN(CCCOC(=O)c3cc(OC)c(OC)c(OC)c3)CC2)cc(OC)c1OC (racemic) [DDL-402, Dilazep]
- sAPPα levels after 24 h (sAPPα [1]): significantly increased
- ratio (phospho-GSK3β/Actin) to (Total-GSK3β/Actin) (p-GSK3β (Ser 9) [2]; 18 h): trend to increase in p-GSK3β

Molecule: CC(Cc1ccccc1)(NC(=O)CN)c1ccccc1 (centres unmarked) [DDL-401, Remacemide]
- enhancement of sAPPα in CHO-7W cells (sAPPα [3]; CHO cells stably expressing human APP, initial HTS): enhancer of sAPPα
- percent increase in sAPPα levels normalized to control in HTS (sAPPα [3]; CHO-7W cells 5 K/well, 5 μM compound, 48 h, AlphaLISA): > 25%
- concentration giving a modest increase in RTN3 monomer levels (RTN3 monomer; SH-SY5Y, WB): ≥ 10 µM
- sAPPα in SH-SY5Y cells (sAPPα [1]): significantly (p>0.01) increased; also recorded: increased sAPPα
- sAPPα in SH-SY5Y cells (sAPPα [1]; listed as Remacemide): sAPPα increase
- time course of sAPPα in media (sAPPα [1]; SH-SY5Y 400,000/well, 5 μM, media collected every 2 h for 24 h, vs DMSO): time dependent increase in sAPPα
- sAPPα levels after 24 h (sAPPα [1]): significantly increased
- BAP31 by WB (BAP31 [4]): no significant increase
- levels of tryptic peptides corresponding to BAP31 (MS/MS) (BAP31 [5]): increase in the levels of tryptic peptides

Molecule: CN1[C@@H]2CC[C@H]1C[C@@H](OC(=O)c1c[nH]c3ccccc13)C2 [F03, Tropisetron]
- level of RTN3 monomer (~25 kD) (RTN3 monomer; SH-SY5Y 100 k/well, 5 uM, 12 h, vs DMSO or untreated): trended to increase
- phosphorylation of GSK3β (p-GSK3β (Ser 9) [2]; 12 h or 18 h): increases phosphorylation of GSK3β
- RTN3 levels in the brain (RTN3): slightly enhanced
- p-GSK3β in brain (p-GSK3β): bigger increase
- sAPPα in brain (sAPPα [6]): slight increase

Molecule: sAPPα: recombinant sAPPα (25 nM) used as a positive control for GSK3β phosphorylation
- phosphorylation of GSK3β (positive control, literature) (p-GSK3β (Ser 9) [7]): increase the phosphorylation of GSK3β
